Source: paper PMC7216467, “Evaluation of neuroprotective and anti-amnesic effects of Elaeagnus umbellata Thunb. On scopolamine-induced memory impairment in mice” (BMC Complementary Medicine and Therapies, 2020)

Tests used:
[1] = tested on: scopolamine-induced cognitive impairment in mice; assay: Novel object recognition test, scopolamine-induced amnesia; assay type: in vivo; details: donepezil 2 mg/kg
Protocol: (§1) After the acclimatization period, in scopolamine-induced amnesia test the Albino male mice were randomly divided into six groups (n = 6) to study the effect of CHF. […] The doses of tested solutions of CHF. […] The treatments were continued for 8 days. In the Y-maze and Novel object recognition tests, scopolamine (1 mg/kg, i.p.) was given to the different groups only on the 8th day, 30 min after the respective treatments, to induce cognitive deficit in mice. One hour after administration of the drugs all animals were subjected to Y-maze and Novel object recognition test following standard procedure.
The detail methodology published, was followed while performing the novel object recognition (NORT) test. NORT consisting of habituation, sample, and test phases. On the day before test, mice were allowed to explore the box (without any object) for 2 min. On the day of test after habituation the sample phase was carried out 60 min after the last treatment on the 8th day. In sample phase each mouse was placed in an open field with two identical objects (plastic ball) for 5 min. The mouse was then returned to its home cage. The apparatus was comprised of a white coloured plywood box (40 cm × 40 cm × 66 cm) with a network floors that could be effortlessly cleaned (with 70%v/v ethanol) after every trial. The apparatus was illuminated by a 60 W light suspended 50 cm over the crate. The arena and objects were cleaned with 70% v/v ethanol between trials to avoid olfactory cues. For short-term memory, the test phase was performed 5 min after the sample phase. In the test phase, each mouse was placed again in the open field in which one of the identical objects had been replaced with a novel object (plastic square). The location of the object was counterbalanced so that one half of the mice in each group saw the novel object on the left side of the box arena, and the other half saw the novel object on the right side of the box arena to eliminate bias of sides. NORT can also be used for encoding and retrieval of spatial memory (long-term memory). A wash-out period of 5 days was allowed before the NORT to assess long-term memory in mice. The procedure was the same as that for short-term memory except that mice were presented in the test phase 24 h after the sample phase exposure. The time spent exploring each object in each phase was recorded manually using a stopwatch. A mouse was scored as exploring when its head was oriented towards the object within a distance of 2 cm or when the nose was in contact with the object. Parameters including the time (in seconds) spent exploring familiar (F) object, time (in seconds) spent exploring the novel (N) object, and total time (in seconds) spent exploring both objects (N + F) were measured separately.

[2] = tested on: scopolamine-induced cognitive impairment in mice; assay: Y-maze test, scopolamine-induced amnesia; assay type: in vivo
Protocol: as §1
The Y-Maze test was designed to evaluate the short term memory in experimental mice using reported procedure. Y-maze apparatus is Y shaped with three arms of equivalent size, labelled as A, B, and C. Each arm was 20 cm long, 6 cm wide and 15.5 cm high and was oriented at an angle of 120° from the other two. For each animal the Y maze testing was carried out for 5 min. Mice were placed in one arm, and the order and number of arm entries were recorded. An arm entry was considered to be complete when the hind paws of the mice was completely inside a given arm while alternation was defined as consecutive entries by a mouse into the three different arms. The arena was cleaned using 70% v/v ethanol between each trial to avoid olfactory cues. The escape latency (second) on day 1–5 were recorded for all animals. At the end of 5th day, the spontaneous alteration behavior study was conducted. In spontaneous alteration study, each animal was placed at the center of the Y-Maze apparatus and allowed to move freely through the maze. The series of arm entries were visually recorded. To start behavioral test the mice was set in one arm and recorded the number of arm entries, same arm returns (SAR), and alternate arm returns (AAR) were measured. Percent spontaneous alternation performance (SAP) was calculated by the following formula: 5 %SAP=Active alterationstotal alterations/Possible alterationstotalarmentries−2x100

[3] = vs scopolamine (1 mg/kg) group, CHF. Ext 200 mg/kg, CGA 10 and 30 mg/kg, donepezil 2 mg/kg

Which results are given for `COc1cc2c(cc1OC)C(=O)C(CC1CCN(Cc3ccccc3)CC1)C2` (stereo not drawn) [Donepezil, reference compound]?
time for exploration of novel object, test phase, long term memory ([1]; CHF. Ext 100 & 200 mg/kg, CGA 10 & 30 mg/kg): significant (*p < 0.05, **p < 0.01) increase; %DI, long term memory ([1]; CHF. Ext 100, 200 mg/kg, CGA 10 & 30 mg/kg): significant (*p < 0.05, **p < 0.01) increase; time with novel object, test phase, short term memory ([1]; vs scopolamine group (*p < 0.05, **p < 0.01), CHF. Ext 50, 100, 200 mg/kg, CGA 10 and 30 mg/kg): more time with novel object; escape latency ([2]; day 1-5, vs scopolamine treated group): significant decline (p < 0.001); percentage of alternate arm returns [2, 3]: significant (*p<0.05; **p < 0.01) increase; percentage of same arm returns [2, 3]: significant (p < 0.01) reduction
